Data reported in publication PMC8533202, “Design of Inhibitors of the Intrinsically Disordered Protein NUPR1: Balance between Drug Affinity and Target Function” (Biomolecules, 2021).

Tests used:
[1] = system: MiaPaCa-2 cells; assay: Cell viability assay (PrestoBlue); type: cell-based, human; details: MiaPaCa-2, 72 h
Experimental: (§1) Cell viability was evaluated in ten pancreatic cancer cell lines, including MiaPaCa-2, and nine primary pancreatic cancer-derived cell lines: PDAC001T, PDAC012T, PDAC021T, PDAC081T, PDAC082T, PDAC087T, PDAC088T, PDAC089T, and PDAC115T. MiaPaCa-2 cells were obtained from ATCC (Manassas, VA, USA) and maintained in DMEM (Invitrogen, Cergy-Pontoise, France), supplemented with 10% […] at 37 °C with 5% CO2. The primary pancreatic cancer-derived cells were cultured in serum free ductal media (SFDM) following a procedure adapted from those previously described, without antibiotic, and incubated at 37 °C in a 5% CO2 incubator. Cells were plated in 96-well plates (5000 cells/well) overnight. Then, the media were supplemented with the compounds to be tested at 0–100 µM concentration, and the samples were incubated for another additional 72 h before performing the measurement. Cell viability was estimated after addition of PrestoBlue™ reagent (Life Technologies, Paris, France) for 3 h according to the PrestoBlue™ cell viability reagent protocol provided by the supplier. Cell viability was normalized when comparing to untreated cell rates. Experiments were performed in triplicate and each set was repeated three times, with similar results.

[2] = target: T1, NUPR1 (Homo sapiens, UniProt O60356); assay: Isothermal titration calorimetry (ITC) binding to NUPR1; details: 25 °C; for N (stoichiometry) / ΔG / ΔH / −TΔS: pH 7.0; for Ka / Kd: sodium phosphate 20 mM, pH 7.0, 2% DMSO; for Kd: read-out: Kd (=1/Ka)
T1 construct: made in house
T1 sequence (O60356 1-82): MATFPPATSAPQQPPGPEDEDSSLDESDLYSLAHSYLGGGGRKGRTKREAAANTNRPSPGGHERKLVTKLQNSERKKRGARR
Experimental: The binding of the ZZW-115-derived compounds to NUPR1 was determined as described by using a high sensitivity isothermal titration calorimeter Auto-iTC200 (MicroCal, Malvern-Panalytical, Malvern, UK). Protein samples and solutions were properly degassed. Experiments were performed with freshly prepared protein solutions at 25 °C. A solution of NUPR1 (20 μM, in sodium phosphate 20 mM, pH 7.0, 2% DMSO) in the calorimetric cell was titrated with a solution of each compound (200 μM, in sodium phosphate 20 mM pH 7.0, 2% DMSO). The inhibitors were dissolved in the same buffer used for the protein. A standard protocol was employed: 19 titrant injections with 2 μL compound solution were programmed with a time spacing of 150 s, a stirring speed of 750 rpm, and a reference power of 10 μcal/s. The heat evolved after each ligand injection was calculated from the integral of the calorimetric signal. The heat due to the binding reaction was obtained as the difference between the reaction heat and the corresponding heat of injection, the latter estimated as a constant value throughout the experiment, and included as an adjustable parameter in the analysis. Control experiments (with the compounds injected into the buffer) were performed under the same experimental conditions.
The association constant (Ka), the enthalpy change (ΔH) and the stoichiometry (n) of the binding reaction were obtained through nonlinear regression analysis of experimental data to a model assuming a single ligand binding site for the protein. Experiments were performed in replicate and data were analyzed using in-house-developed software implemented in Origin 7 (OriginLab).
The interaction between ZZW-115-Derived compounds and NUPR1 was studied by using ITC, the gold-standard technique in binding-affinity determination, to test our theoretical prediction. […] From the thermogram (thermal power as a function of time), the binding isotherm (ligand-normalized heat as a function of the molar ratio) was obtained through integration of the individual heat effect associated with injection of each ligand solution (Figure 3). We used a nonlinear least-squares regression analysis employing a model that considered a single binding site in NUPR1 to estimate binding parameters such as the dissociation constant and the binding enthalpy.

[3] = system: PDAC115T cells; assay: Cell viability assay (PrestoBlue); type: cell-based; details: Homo sapiens; PDAC115T (basal subtype), 72 h
Description: (§2) Primary pancreatic cancer cells PDAC001T, PDAC012T, PDAC021T, PDAC081T, PDAC082T, PDAC087T, PDAC088T, PDAC089T, and PDAC115T were obtained from the PaCaOmics clinical trial registered at www.clinicaltrials.gov (accessed on 2 October 2021) with registration number NCT01692873. We included PDAC samples from both echoendoscopic ultrasound-guided fine-needle (EUS-FNA) biopsies for patients with unresectable tumors and from surgical specimens for patients undergoing surgery. The tumor samples of these patients were used to generate patient-derived xenograft in nude mice as previously reported. Xenografts obtained from mice were split into several small pieces and used for cell culture in a biosafety chamber: after fine mincing, they were treated with collagenase type V (ref C9263; Sigma-Aldrich, St. Louis, MO, USA) and trypsin/EDTA (ref 25200-056; Gibco, Life Technologies, Grand Island, NY, USA) and were suspended in Dulbecco’s modified Eagle’s medium supplemented with 1% w/w penicillin/streptomycin (Gibco, Life Technologies, Paisley, UK) and 10% fetal bovine serum (Lonza Inc., Walkersville, MD, USA). After centrifugation, cells were resuspended in serum-free ductal media adapted from Schreiber et al. at 37 °C in a 5% CO2 incubator. Amplified cells were stored in liquid nitrogen as previously reported. Cells were weaned from antibiotics for ≥48 h before testing.
as §1

[4] = system: PDAC001T cells; assay: Cell viability assay (PrestoBlue); type: cell-based; details: Homo sapiens; PDAC001T (basal subtype), 72 h
Description: as §2, §1

[5] = system: PDAC088T cells; assay: Cell viability assay (PrestoBlue); type: cell-based; details: Homo sapiens; PDAC088T (classical subtype), 72 h
Description: as §2, §1

[6] = system: PDAC082T cells; assay: Cell viability assay (PrestoBlue); type: cell-based; details: Homo sapiens; PDAC082T (classical subtype), 72 h
Description: as §2, §1

[7] = system: PDAC081T cells; assay: Cell viability assay (PrestoBlue); type: cell-based; details: Homo sapiens; PDAC081T (classical subtype), 72 h
Description: as §2, §1

[8] = system: PDAC012T cells; assay: Cell viability assay (PrestoBlue); type: cell-based; details: Homo sapiens; PDAC012T (classical subtype), 72 h
Description: as §2, §1

[9] = system: PDAC021T cells; assay: Cell viability assay (PrestoBlue); type: cell-based; details: Homo sapiens; PDAC021T (basal subtype), 72 h
Description: as §2, §1

[10] = system: PDAC087T cells; assay: Cell viability assay (PrestoBlue); type: cell-based; details: Homo sapiens; PDAC087T (basal subtype), 72 h
Description: as §2, §1

[11] = system: PDAC089T cells; assay: Cell viability assay (PrestoBlue); type: cell-based; details: Homo sapiens; PDAC089T (derived from a liver metastasis), 72 h
Description: as §2, §1

[12] = system: NUPR1 nuclear translocation; assay: NUPR1 nuclear translocation, immunofluorescence in MiaPaCa-2 cells; type: cell-based, human; details: 3 µM, 6 h (Figure 4)
Experimental: Cells (100000 cells/well) were seeded in 12-well plates on coverslips overnight and then treated with 3 μM concentration of each compound for […]. After fixation with 4% paraformaldehyde (Sigma-Aldrich, St. Quentin, Fallavier, France) for 15 min, cells were washed twice with 1x PBS and incubated 1 h with the following antibodies at 1:200 dilution: rabbit anti-NUPR1 primary antibody (homemade) or γH2AX primary antibody (ab26350, Abcam, Paris, France). After the washing steps, samples were incubated 1 h with secondary antibodies at 1:500 dilution (goat anti-rabbit Alexa Fluor 488, A27034, or goat anti-mouse Alexa Fluor 488, A28175, both from Thermo Fisher Scientific, Franklin, MA, USA). ProLong™ Gold Antifade Mountant with DAPI (P36931, Thermo Fisher Scientific) was used to stain the nucleus and seal the samples. Image acquisition of Alexa Fluor 488-derived fluorescence and DAPI staining was detected with an LSM 880 controlled by Zeiss Zen Black 63x lens. Co-localization analysis and measurements in both channels were performed by using the ImageJ Coloc 2 plugin (version 3.0.5).
MiaPaCa-2 cells were treated with representative ZZW-115-derived compounds (3 µM) for 6 h. […] DAPI staining was used to detect cell nuclei, and it was combined with the Alexa 488 fluorescence in the merged panel. […]

SMILES	IC50 ([1]; Homo sapiens, MIA PaCa-2, 72 h) [nM]	N (stoichiometry) [2]	ΔG [2] [kcal mol^–1]	ΔH [2] [kcal mol^–1]	−TΔS [2] [kcal mol^–1]	Ka [2] [M^–1 × 10^5]	Kd [2] [µM]	IC50 [3] [µM]	IC50 [4] [nM]	IC50 [5] [µM]	IC50 [6] [µM]	IC50 [7] [nM]	IC50 [8] [µM]	IC50 [9] [µM]	IC50 [10] [µM]	IC50 [11] [µM]	IC50 [1] [nM]	ability to hamper NUPR1 nuclear translocation [12]
FC(F)(F)c1ccc2c(c1)N(CCCN1CCN(CCN3CCCC3)CC1)c1ccccc1S2 [ZZW-130]	350	1.4 ± 0.1	−7.9 ± 0.1	0.3 ± 0.3	−8.2 ± 0.3	6.4 ± 0.4	1.6 ± 0.1	2.91	2450	6.75	4.33	1120	4.18	3.81	4.95	6.03	–	–
FC(F)(F)c1ccc2c(c1)N(CCCN1CCN(CCCN3CCOCC3)CC1)c1ccccc1S2 [ZZW-148]	470	1.2 ± 0.1	−6.8 ± 0.1	0.7 ± 0.5	−7.5 ± 0.5	1.0 ± 0.1	9.6 ± 1	4.37	3750	10.7	4.1	1110	3.7	4.35	6.57	14.8	–	–
CCN(CC)CCN1CCN(CCCN2c3ccccc3Sc3ccc(C(F)(F)F)cc32)CC1 [ZZW-129]	330	1.2 ± 0.1	−7.5 ± 0.1	−0.7 ± 0.4	−6.8 ± 0.4	3.1 ± 0.3	3.2 ± 0.3	2.46	1940	7.28	3.56	860	2.77	3.41	4.28	7.9	–	–
FC(F)(F)c1ccc2c(c1)N(CCCN1CCN(CCCN3CCCC3)CC1)c1ccccc1S2 [ZZW-144]	260	1.2 ± 0.1	−6.7 ± 0.1	0.5 ± 0.5	−7.2 ± 0.5	0.85 ± 0.8	12 ± 1	3.22	2510	5.8	3.04	980	2.51	3.69	3.57	8.38	–	–
CN(C)CCCN1CCN(CCCN2c3ccccc3Sc3ccc(C(F)(F)F)cc32)CC1 [ZZW-142]	~1000	1.3 ± 0.1	−7.8 ± 0.1	0.3 ± 0.3	−8.1 ± 0.3	4.9 ± 0.3	2 ± 0.2	14.7	11900	23.9	23	2270	12.8	17	16.6	22.5	950	worst effect in hampering the nuclear translocation efficiency

Further lines, with some results ahead:

IC50 ([1]; Homo sapiens, MIA PaCa-2, 72 h) [nM]	N (stoichiometry) [2]	ΔG [2] [kcal mol^–1]	ΔH [2] [kcal mol^–1]	−TΔS [2] [kcal mol^–1]	Ka [2] [M^–1 × 10^5]	Kd [2] [µM]	SMILES	IC50 [3] [µM]	IC50 [4] [nM]	IC50 [5] [µM]	IC50 [6] [µM]	IC50 [7] [nM]	IC50 [8] [µM]	IC50 [9] [µM]	IC50 [10] [µM]	IC50 [11] [µM]	IC50 [1] [nM]	ability to hamper NUPR1 nuclear translocation [12]
300	0.8 ± 0.1	−7.7 ± 0.1	0.5 ± 0.3	−8.2 ± 0.3	4.7 ± 0.3	2.1 ± 0.1	FC(F)(F)c1ccc2c(c1)N(CCCN1CCN(CCN3CCCCC3)CC1)c1ccccc1S2 [ZZW-131]	5.75	3980	8.11	6.49	970	5.25	6.47	4.43	10.6	–	–
190	1.2 ± 0.1	−6.7 ± 0.1	0.7 ± 0.5	−7.4 ± 0.5	0.82 ± 0.9	11 ± 1	FC(F)(F)c1ccc2c(c1)N(CCCN1CCN(CCCN3CCCCC3)CC1)c1ccccc1S2 [ZZW-145]	2.44	2360	5	2.33	780	2.36	2.33	2.37	6.22	–	–
290	1.2 ± 0.1	−6.4 ± 0.1	0.8 ± 0.4	−7.2 ± 0.4	0.5 ± 0.1	20 ± 4	CCN(CC)CCCN1CCN(CCCN2c3ccccc3Sc3ccc(C(F)(F)F)cc32)CC1 [ZZW-143]	2.5	2310	5.94	3.55	970	2.18	2.57	2.22	6.12	–	–
